Laboratory results taken from US20250179103A1, “6-OXODECAHYDROPYRROLO[1,2-A][1,5]DIAZOCINE AND 6-OXODECAHYDRO-4H-PYRROLO[2,1-D][1,5]THIAZOCINE DERIVATIVES AS STAT3 AND STAT6 MODULATORS FOR THE TREATMENT OF CANCER AND INFLAMMATORY CONDITIONS” (Recludix Pharma, Inc., priority 2022, published 2025).

What was measured:
[1] = molecular target: T1, Recombinant STAT3 protein (STAT3(G127-I722)) (Homo sapiens, UniProt P40763); test: STAT3 Fluorescence Polarization (FP) Assay; type: binding; conditions: STAT3(G127-I722) 25 nM, probe 5-FAM-GpYLPQTV-NH2 2 nM, 45-minute incubation
T1 construct: Recombinant STAT3 protein (STAT3(G127-I722))
Description: STAT3 Fluorescence Polarization (FP) Assay
An FP assay was developed to determine IC50 values for test substances. Recombinant STAT3 protein (STAT3(G127-I722)) at 25 nM was combined with a fluorescently labeled, phosphotyrosine peptide probe (5-FAM-GpYLPQTV-NH2) at 2 nM in FP buffer (10 mM HEPES pH 7.4, 50 mM NaCl, 1 mM EDTA, 0.05% Tween 20.2 mM DTT). 50 μL of STAT3-probe mixture was added to serial diluted compounds in black, 96-well plates (Greiner BioOne 655076) to a final concentration of 1% DMSO. Reaction components were mixed, and FP was measured after 45-minute incubation at room temperature using a Tecan Spark multimode plate reader. FP signal (mP) was plotted against the log concentration of the test substances and IC50 values were calculated by nonlinear regression analysis using GraphPad Prism software. For STAT3 FP assay, A=≤100 nM; B=>100-1000 nM; C=>1-10 μM; and D=>10 μM.

[2] = molecular target: T2, Recombinant STAT6 protein (STAT6(W123-T658)) (Homo sapiens, UniProt P42226); test: STAT6 Fluorescence Polarization (FP) Assay; type: binding; conditions: STAT6(W123-T658) 250 nM, probe 5-FAM-ApYKPFQDLI-NH2 2 nM, 45-minute incubation
T2 construct: Recombinant STAT6 protein (STAT6(W123-T658))
T2 sequence (P42226 123-658): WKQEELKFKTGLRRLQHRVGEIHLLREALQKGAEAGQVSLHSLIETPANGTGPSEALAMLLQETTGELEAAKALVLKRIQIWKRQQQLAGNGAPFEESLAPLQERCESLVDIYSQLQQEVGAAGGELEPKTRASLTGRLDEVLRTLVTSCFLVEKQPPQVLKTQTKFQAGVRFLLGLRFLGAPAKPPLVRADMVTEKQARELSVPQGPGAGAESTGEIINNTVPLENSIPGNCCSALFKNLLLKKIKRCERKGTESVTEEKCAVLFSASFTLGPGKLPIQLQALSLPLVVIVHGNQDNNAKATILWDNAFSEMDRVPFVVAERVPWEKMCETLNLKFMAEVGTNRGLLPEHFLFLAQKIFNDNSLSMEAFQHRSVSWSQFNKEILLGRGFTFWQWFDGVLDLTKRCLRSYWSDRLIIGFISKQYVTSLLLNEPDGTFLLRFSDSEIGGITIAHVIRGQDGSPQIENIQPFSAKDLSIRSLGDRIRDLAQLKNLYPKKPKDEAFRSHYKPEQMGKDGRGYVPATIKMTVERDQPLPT
Description: STAT6 Fluorescence Polarization (FP) Assay
An FP assay was developed to determine IC50 values for test substances. Recombinant STAT6 protein (STAT6(W123-T658)) at 250 nM was combined with a fluorescently labeled, phosphotyrosine peptide probe (5-FAM-ApYKPFQDLI-NH2) at 2 nM in FP buffer (10 mM HEPES pH 7.4, 50 mM NaCl, 1 mM EDTA, 0.05% Tween 20.2 mM DTT). 50 μL of STAT6-probe mixture was added to serial diluted compounds in black, 96-well plates (Greiner BioOne 655076) to a final concentration of 1% DMSO. Reaction components were mixed, and FP was measured after 45-minute incubation at room temperature using a Tecan Spark multimode plate reader. FP signal (mP) was plotted against the log concentration of the test substances and IC50 values were calculated by nonlinear regression analysis using GraphPad Prism software. For STAT6 FP assay, A=≤300 nM; B=>300-3000 nM; C=>3-30 μM; and D=>30 μM.

T1 sequence (P40763 127-722): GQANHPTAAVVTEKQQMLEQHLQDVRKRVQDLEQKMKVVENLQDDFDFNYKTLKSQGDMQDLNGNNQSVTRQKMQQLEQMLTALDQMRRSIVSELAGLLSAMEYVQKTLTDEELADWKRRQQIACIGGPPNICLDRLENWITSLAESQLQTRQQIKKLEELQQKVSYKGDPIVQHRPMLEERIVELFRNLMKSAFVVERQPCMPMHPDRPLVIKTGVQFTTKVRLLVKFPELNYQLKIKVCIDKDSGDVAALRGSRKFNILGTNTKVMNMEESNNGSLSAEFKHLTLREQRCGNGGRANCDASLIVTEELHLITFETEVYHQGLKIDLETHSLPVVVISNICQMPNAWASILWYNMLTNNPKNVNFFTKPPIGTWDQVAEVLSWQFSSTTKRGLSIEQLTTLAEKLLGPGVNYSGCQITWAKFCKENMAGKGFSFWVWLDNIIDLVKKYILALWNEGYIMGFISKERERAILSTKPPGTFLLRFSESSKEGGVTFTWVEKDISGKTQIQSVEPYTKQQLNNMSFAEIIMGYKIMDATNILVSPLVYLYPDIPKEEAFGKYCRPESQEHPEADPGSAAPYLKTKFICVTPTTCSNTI

Structure (SMILES) | IC50 [1] | IC50 [2]
N#CC1CN(C(=O)C2CCC3CCNCC(NC(=O)c4cc5cc(C(F)(F)P(=O)(O)O)ccc5s4)C(=O)N32)CC1c1ccccc1 (mixture of isomers) [Compound 10, ((2-(((5S,8S,10aR)-8-((rel-trans)-3-cyano-4-phenylpyrrolidine-1-carbonyl)-6-oxodecahydropyrrolo[1,2-a][1,5]diazocin-5-yl)carbamoyl)benzo[b]thiophen-5-yl)difluoromethyl)phosphonic Acid] | 1000 to 10000 nM | ≤ 300 nM
CC(=O)N1CC[C@H]2CC[C@@H](C(=O)N3C[C@@H](O)[C@H](n4ccnn4)C3)N2C(=O)[C@@H](NC(=O)c2ccc3ccc(C(F)(F)P(=O)(O)O)cc3c2)C1 (relative stereo) [Compound 5, ((7-(((5S,8S,10aR)-3-acetyl-8-((3R,4R)-3-hydroxy-4-(1H-1,2,3-triazol-1-yl)pyrrolidine-1-carbonyl)-6-oxodecahydropyrrolo[1,2-a][1,5]diazocin-5-yl)carbamoyl)naphthalen-2-yl)difluoromethyl)phosphonic Acid] | 1000 to 10000 nM | 300 to 3000 nM
CC(=O)N1CC[C@H]2CC[C@@H](C(=O)N3C[C@H](c4ccccc4)[C@@H](O)C3)N2C(=O)[C@@H](NC(=O)c2cc3cc(C(F)(F)P(=O)(O)O)ccc3s2)C1 (relative stereo) [Compound 60, ((2-(((5S,8S,10aR)-3-acetyl-8-((rel-trans)-3-hydroxy-4-phenylpyrrolidine-1-carbonyl)-6-oxodecahydropyrrolo[1,2-a][1,5]diazocin-5-yl)carbamoyl)benzo[b]thiophen-5-yl)difluoromethyl)phosphonic acid] | 1000 to 10000 nM | ≤ 300 nM
CC(=O)N1CC[C@H]2CC[C@@H](C(=O)N3CC(c4cn[nH]c4)[C@@H](C#N)C3)N2C(=O)[C@@H](NC(=O)c2cc3cc(C(F)(F)P(=O)(O)O)ccc3s2)C1 (relative stereo) [Compound 141, ((2-(((5S,8S,10aR)-3-acetyl-8-((rel-trans)-3-cyano-4-(1H-pyrazol-4-yl)pyrrolidine-1-carbonyl)-6-oxodecahydropyrrolo[1,2-a][1,5]diazocin-5-yl)carbamoyl)benzo[b]thiophen-5-yl)difluoromethyl)phosphonic acid] | 1000 to 10000 nM | 300 to 3000 nM
CC(=O)N1CC[C@H]2CC[C@@H](C(=O)N3CC(c4cc(F)cc(F)c4)[C@@H](C#N)C3)N2C(=O)[C@@H](NC(=O)c2cc3cc(C(F)(F)P(=O)(O)O)ccc3s2)C1 (relative stereo) [Compound 142, ((2-(((5S,8S,10aR)-3-acetyl-8-((rel-trans)-3-cyano-4-(3,5-difluorophenyl)pyrrolidine-1-carbonyl)-6-oxodecahydropyrrolo[1,2-a][1,5]diazocin-5-yl)carbamoyl)benzo[b]thiophen-5-yl)difluoromethyl)phosphonic acid] | 1000 to 10000 nM | ≤ 300 nM
COc1ccccc1C1CN(C(=O)[C@@H]2CC[C@@H]3CCN(C(C)=O)C[C@H](NC(=O)c4cc5cc(C(F)(F)P(=O)(O)O)ccc5s4)C(=O)N32)C[C@@H]1C#N (relative stereo) [Compound 144, ((2-(((5S,8S,10aR)-3-acetyl-8-((rel-trans)-3-cyano-4-(2-methoxyphenyl)pyrrolidine-1-carbonyl)-6-oxodecahydropyrrolo[1,2-a][1,5]diazocin-5-yl)carbamoyl)benzo[b]thiophen-5-yl)difluoromethyl)phosphonic acid] | 1000 to 10000 nM | ≤ 300 nM
COc1ccc(C2CN(C(=O)[C@@H]3CC[C@@H]4CCN(C(C)=O)C[C@H](NC(=O)c5cc6cc(C(F)(F)P(=O)(O)O)ccc6s5)C(=O)N43)C[C@@H]2C#N)cn1 (relative stereo) [Compound 147, ((2-(((5S,8S,10aR)-3-acetyl-8-((rel-trans)-3-cyano-4-(6-methoxypyridin-3-yl)pyrrolidine-1-carbonyl)-6-oxodecahydropyrrolo[1,2-a][1,5]diazocin-5-yl)carbamoyl)benzo[b]thiophen-5-yl)difluoromethyl)phosphonic acid] | 100 to 1000 nM | 300 to 3000 nM

Further lines, results first:

IC50 [1] | IC50 [2] | Structure (SMILES)
1000 to 10000 nM | ≤ 300 nM | CC(=O)N1CCC(NC(=O)c2ccc3ccc(C(F)(F)P(=O)(O)O)cc3c2)C(=O)N2C(CCC2C(=O)N2CC(C#N)C(c3ccccc3)C2)C1 (mixture of isomers) [Compound 4, ((7-(((5S,8S,10aR)-2-acetyl-8-((rel-trans)-3-cyano-4-phenylpyrrolidine-1-carbonyl)-6-oxodecahydropyrrolo[1,2-a][1,4]diazocin-5-yl)carbamoyl)naphthalen-2-yl)difluoromethyl)phosphonic Acid]
100 to 1000 nM | ≤ 300 nM | N#CC1CN(C(=O)C2CCC3CCN(C(=O)OCc4ccccc4)CC(NC(=O)c4cc5cc(C(F)(F)P(=O)(O)O)ccc5s4)C(=O)N32)CC1c1ccccc1 (mixture of isomers) [Compound 9, ((2-(((5S,8S,10aR)-3-((benzyloxy)carbonyl)-8-((rel-trans)-3-cyano-4-phenylpyrrolidine-1-carbonyl)-6-oxodecahydropyrrolo[1,2-a][1,5]diazocin-5-yl)carbamoyl)benzo[b]thiophen-5-yl)difluoromethyl)phosphonic acid]
1000 to 10000 nM | ≤ 300 nM | N#CC1CN(C(=O)C2CCC3CNCCC(NC(=O)c4ccc5ccc(C(F)(F)P(=O)(O)O)cc5c4)C(=O)N32)CC1c1ccccc1 (mixture of isomers) [Compound 211, ((7-(((5S,8S,10aR)-8-((rel-trans)-3-cyano-4-phenylpyrrolidine-1-carbonyl)-6-oxodecahydropyrrolo[1,2-a][1,4]diazocin-5-yl)carbamoyl)naphthalen-2-yl)difluoromethyl)phosphonic acid]
1000 to 10000 nM | ≤ 300 nM | CC(=O)N1CC[C@H]2CC[C@@H](C(=O)N3CC(c4ccccc4)[C@@H](c4ccccc4)C3)N2C(=O)[C@@H](NC(=O)c2cc3cc(C(F)(F)P(=O)(O)O)ccc3s2)C1 (relative stereo) [Compound 143, ((2-(((5S,8S,10aR)-3-acetyl-8-((rel-trans)-3,4-diphenylpyrrolidine-1-carbonyl)-6-oxodecahydropyrrolo[1,2-a][1,5]diazocin-5-yl)carbamoyl)benzo[b]thiophen-5-yl)difluoromethyl)phosphonic acid]
100 to 1000 nM | ≤ 300 nM | CC(=O)N1CC[C@H]2CC[C@@H](C(=O)N3CC(c4cc[nH]c(=O)c4)[C@@H](C#N)C3)N2C(=O)[C@@H](NC(=O)c2cc3cc(C(F)(F)P(=O)(O)O)ccc3s2)C1 (relative stereo) [Compound 145, ((2-(((5S,8S,10aR)-3-acetyl-8-((rel-trans)-3-cyano-4-(2-oxo-1,2-dihydropyridin-4-yl)pyrrolidine-1-carbonyl)-6-oxodecahydropyrrolo[1,2-a][1,5]diazocin-5-yl)carbamoyl)benzo[b]thiophen-5-yl)difluoromethyl)phosphonic acid]
100 to 1000 nM | 300 to 3000 nM | CC(=O)N1CC[C@H]2CC[C@@H](C(=O)N3CC(c4ccc(=O)[nH]c4)[C@@H](C#N)C3)N2C(=O)[C@@H](NC(=O)c2cc3cc(C(F)(F)P(=O)(O)O)ccc3s2)C1 (relative stereo) [Compound 146, ((2-(((5S,8S,10aR)-3-acetyl-8-((rel-trans)-3-cyano-4-(6-oxo-1,6-dihydropyridin-3-yl)pyrrolidine-1-carbonyl)-6-oxodecahydropyrrolo[1,2-a][1,5]diazocin-5-yl)carbamoyl)benzo[b]thiophen-5-yl)difluoromethyl)phosphonic acid]
